Laboratory results as given in ChEMBL document CHEMBL1151079, “On the mechanism of activation of designed enediynes with selective cytotoxicity” (Bioorg Med Chem Lett, 1992).

Experiments:
MCF7 = assay: Compound tested for cytotoxic Activity against MCF-7 cell line from breast carcinoma; format: functional, cell-based; conditions: Homo sapiens
MOLT-4 = assay: Compound tested for cytotoxic Activity against Molt-4 cell line from T cell leukemia; format: functional, cell-based; conditions: Homo sapiens
HT-29 = assay: Compound tested for cytotoxic Activity against HT-29 cell line from colon carcinoma; format: functional, cell-based; conditions: Homo sapiens
OVCAR-3 = assay: Compound tested for cytotoxic Activity against Ovcar-3 cell line from ovarian carcinoma; format: functional, cell-based; conditions: Homo sapiens
SK-MEL-28 = assay: Compound tested for cytotoxic Activity against SK-Mel-28 cell line from melanoma; format: functional, cell-based; conditions: Homo sapiens
NHDF [1] = assay: (§1) Compound tested for cytotoxic Activity against NHDF cell line; format: functional, cell-based; conditions: Homo sapiens
CAPAN-1 = assay: Compound tested for cytotoxic Activity against Capan-l cell line from pancreatic carcinoma; format: functional, cell-based; conditions: Homo sapiens
CHO [2] = assay: (§2) Compound tested for cytotoxic Activity against CHO cell line; format: functional, cell-based; conditions: Cricetulus griseus
HL-60 = assay: Compound tested for cytotoxic Activity against HL-60 cell line from promyelocytic leukemia; format: functional, cell-based; conditions: Homo sapiens
H322 [3] = assay: Compound tested for cytotoxic Activity against H-322 cell line from lung carcinoma; Non toxic; format: functional, cell-based, Homo sapiens
UCLA P-3 = assay: Compound tested for cytotoxic Activity against UCLA-P3 cell line from lung carcinoma; format: functional, cell-based; conditions: Homo sapiens
P388 = assay: Compound tested for cytotoxic Activity against P-388 cell line from mouse leukemia; format: functional, cell-based
NHDF [4] = assay: as §1; format: cell-based; conditions: Homo sapiens
CHO [5] = assay: as §2; format: cell-based; conditions: Cricetulus griseus
H322 [6] = assay: Compound tested for cytotoxic Activity against H-322 cell line from lung carcinoma; format: functional, cell-based; conditions: Homo sapiens, NCI-H322
NHDF [7] = assay: Compound tested for cytotoxic Activity against NHDF cell line; Not toxic; format: functional, cell-based, Homo sapiens
CHO [8] = assay: Compound tested for cytotoxic Activity against CHO cell line; Not toxic; format: functional, cell-based, Cricetulus griseus

Structure (SMILES) | IC50 (MCF7) [µM] | IC50 (MOLT-4) [µM] | IC50 (HT-29) [µM] | IC50 (OVCAR-3) [µM] | IC50 (SK-MEL-28) [µM] | IC50 (NHDF [1]) [µM] | IC50 (CAPAN-1) [µM] | IC50 (CHO [2]) [µM] | IC50 (HL-60) [µM] | IC50 (H322 [3]) | IC50 (UCLA P-3) [µM] | IC50 (P388) [µM] | IC50 (NHDF [4]) [µM] | IC50 (CHO [5]) [µM] | IC50 (H322 [6]) [µM] | IC50 (NHDF [7]) | IC50 (CHO [8])
C[C@H](COC(=O)N1c2ccccc2[C@@]23O[C@]24CCC[C@@H]3C#C/C=C\C#C[C@H]14)S(=O)(=O)c1ccccc1 | > 1000 | 10 | 13 | 13 | > 1000 | > 1000 | 6.3 | > 1000 | 1.6 | Non-toxic | 13 | 1.6 | – | – | – | – | –
O=C(OCCS(=O)(=O)c1ccccc1)N1c2ccccc2[C@@]23O[C@]24CCC[C@@H]3C#C/C=C\C#C[C@H]14 | 3.1 | 1e-05 | 0.39 | 0.78 | 63 | – | 0.078 | – | 0.098 | – | 0.78 | 0.098 | 6.3 | 6.3 | 3.1 | – | –
C[C@@H](COC(=O)N1c2ccccc2[C@@]23O[C@]24CCC[C@@H]3C#C/C=C\C#C[C@H]14)S(=O)(=O)c1ccccc1 | 25 | 0.01 | 0.78 | 3.1 | 50 | 1000 | 3.1 | 1000 | 0.78 | – | 3.1 | 1.6 | – | – | 13 | – | –
CC(C)(COC(=O)N1c2ccccc2[C@@]23O[C@]24CCC[C@@H]3C#C/C=C\C#C[C@H]14)S(=O)(=O)c1ccccc1 | 25 | 1000 | 25 | 50 | < 1000 | – | 50 | – | 25 | – | 50 | 13 | – | – | 50 | Non-toxic | Non-toxic
